Measured values as given in ChEMBL document CHEMBL1201862, “PubChem BioAssay data set” (2004).
Calls of active or inactive are those of the source.

What was measured:
[1] = biological target: Benomyl/methotrexate resistance protein (Candida albicans, UniProt P28873); assay: CaMdr1 efflux pump inhibitor potency, dose response, singleplex, Cherry Pick1 hits (AID 588608); format: functional
[2] = biological target: Protein disulfide-isomerase (Homo sapiens, UniProt P07237); assay: PDI inhibitors, insulin aggregation turbidity, dose response, biochemical, absorbance, cherry-picked samples (AID 602350); format: functional
Prothrombin = Prothrombin (Bos taurus, UniProt P00735); assay: thrombin inhibition, dose response, biochemical, fluorescence polarization, uHTS hits (AID 602369); format: functional
[3] = biological target: 26S proteasome non-ATPase regulatory subunit 14 (Homo sapiens, UniProt O00487); assay: inhibition of proteasome subunit RPN11 – biochemical, fluorescence polarization, uHTS hits, confirmation (AID 602368); format: functional
[4] = biological target: 72 kDa type IV collagenase (Homo sapiens, UniProt P08253); assay: Dose Response validation of uHTS RPN11 inhibitor hits using a MMP-2 Fluorescence assay.; format: functional
[5] = biological target: Dual specificity protein phosphatase 3 (Homo sapiens, UniProt P51452); assay: VHR phosphatase inhibition, dose response, selectivity assay for STEP inhibitor project, biochemical (AID 602374); format: functional; details: read-out: IC50_Mean
[6] = biological target: Tyrosine-protein phosphatase non-receptor type 5 (Homo sapiens, UniProt P54829); assay: STEP phosphatase inhibitors, confirmation, biochemical, fluorescence intensity, uHTS hits (AID 602372); format: functional; details: read-out: IC50_Mean
[7] = biological target: Tyrosine-protein phosphatase non-receptor type 11 (Homo sapiens, UniProt Q06124); assay: SHP2 phosphatase inhibition, dose response, selectivity assay for STEP inhibitor project, biochemical (AID 602367); format: functional; details: read-out: IC50_Mean
INS1 = assay: beta cell apoptosis inhibitors, cytokine rescue, dose response, luminescence, retest (AID 449756); format: functional, cell-based; details: Rattus norvegicus;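 further: cell death triggered by IL-1 beta plus TNF-alpha plus IFN-gamma mixture; protective hits raise ATP signal compared with cytokine alone wells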
[8] = biological target: T1, High affinity choline transporter 1 (Homo sapiens, UniProt Q9GZV3); assay: CHT inhibitors, dose response, cell-based, 10-point CRC, membrane potential dye (AID 588401); format: functional;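 further: membrane potential dye fluorescence of choline-evoked depolarization via CHT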
T1 sequence (Q9GZV3 whole entry): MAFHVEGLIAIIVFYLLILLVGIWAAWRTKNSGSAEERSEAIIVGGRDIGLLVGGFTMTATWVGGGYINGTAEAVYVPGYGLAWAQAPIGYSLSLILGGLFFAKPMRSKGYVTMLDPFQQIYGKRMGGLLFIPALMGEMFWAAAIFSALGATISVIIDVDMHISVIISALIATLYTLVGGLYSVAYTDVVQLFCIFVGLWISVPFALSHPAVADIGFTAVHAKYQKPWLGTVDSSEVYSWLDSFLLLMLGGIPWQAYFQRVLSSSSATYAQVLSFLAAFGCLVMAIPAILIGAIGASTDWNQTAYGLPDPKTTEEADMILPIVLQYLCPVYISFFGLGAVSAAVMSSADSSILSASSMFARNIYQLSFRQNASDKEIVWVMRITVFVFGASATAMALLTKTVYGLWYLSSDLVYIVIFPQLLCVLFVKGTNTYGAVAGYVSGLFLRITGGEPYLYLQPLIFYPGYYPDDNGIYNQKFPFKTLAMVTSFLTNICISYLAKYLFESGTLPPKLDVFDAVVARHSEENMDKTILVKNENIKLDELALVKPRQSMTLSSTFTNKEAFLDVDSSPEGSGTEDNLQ

[9] = biological target: T1, High affinity choline transporter 1; assay: CHT inhibitors, dose response, cell-based, 5-point CRC, membrane potential dye (AID 504840); format: functional
[10] = biological target: Potassium voltage-gated channel subfamily KQT member 2 (Rattus norvegicus, UniProt O88943); assay: KCNQ2 potassium channel inhibitors, dose response, cell-based, automated electrophysiology, set II, rat KCNQ2 (AID 588637); format: functional
[11] = biological target: T2, Sentrin-specific protease 8 (Homo sapiens, UniProt Q96LD8); assay: SENP8 protease inhibitors, SAR follow-up, biochemical, luminescence (AID 504501); format: functional
T2 sequence (Q96LD8 whole entry): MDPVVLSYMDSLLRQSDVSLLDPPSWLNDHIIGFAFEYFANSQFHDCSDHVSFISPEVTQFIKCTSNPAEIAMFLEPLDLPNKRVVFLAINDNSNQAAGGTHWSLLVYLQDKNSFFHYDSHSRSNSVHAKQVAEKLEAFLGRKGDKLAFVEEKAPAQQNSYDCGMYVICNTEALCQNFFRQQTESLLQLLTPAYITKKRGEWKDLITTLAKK

[12] = biological target: T3, Sentrin-specific protease 7 (Homo sapiens, UniProt Q9BQF6); assay: SENP7 protease inhibitors, SAR follow-up, biochemical, luminescence (AID 504497); format: functional
T3 sequence (Q9BQF6 whole entry): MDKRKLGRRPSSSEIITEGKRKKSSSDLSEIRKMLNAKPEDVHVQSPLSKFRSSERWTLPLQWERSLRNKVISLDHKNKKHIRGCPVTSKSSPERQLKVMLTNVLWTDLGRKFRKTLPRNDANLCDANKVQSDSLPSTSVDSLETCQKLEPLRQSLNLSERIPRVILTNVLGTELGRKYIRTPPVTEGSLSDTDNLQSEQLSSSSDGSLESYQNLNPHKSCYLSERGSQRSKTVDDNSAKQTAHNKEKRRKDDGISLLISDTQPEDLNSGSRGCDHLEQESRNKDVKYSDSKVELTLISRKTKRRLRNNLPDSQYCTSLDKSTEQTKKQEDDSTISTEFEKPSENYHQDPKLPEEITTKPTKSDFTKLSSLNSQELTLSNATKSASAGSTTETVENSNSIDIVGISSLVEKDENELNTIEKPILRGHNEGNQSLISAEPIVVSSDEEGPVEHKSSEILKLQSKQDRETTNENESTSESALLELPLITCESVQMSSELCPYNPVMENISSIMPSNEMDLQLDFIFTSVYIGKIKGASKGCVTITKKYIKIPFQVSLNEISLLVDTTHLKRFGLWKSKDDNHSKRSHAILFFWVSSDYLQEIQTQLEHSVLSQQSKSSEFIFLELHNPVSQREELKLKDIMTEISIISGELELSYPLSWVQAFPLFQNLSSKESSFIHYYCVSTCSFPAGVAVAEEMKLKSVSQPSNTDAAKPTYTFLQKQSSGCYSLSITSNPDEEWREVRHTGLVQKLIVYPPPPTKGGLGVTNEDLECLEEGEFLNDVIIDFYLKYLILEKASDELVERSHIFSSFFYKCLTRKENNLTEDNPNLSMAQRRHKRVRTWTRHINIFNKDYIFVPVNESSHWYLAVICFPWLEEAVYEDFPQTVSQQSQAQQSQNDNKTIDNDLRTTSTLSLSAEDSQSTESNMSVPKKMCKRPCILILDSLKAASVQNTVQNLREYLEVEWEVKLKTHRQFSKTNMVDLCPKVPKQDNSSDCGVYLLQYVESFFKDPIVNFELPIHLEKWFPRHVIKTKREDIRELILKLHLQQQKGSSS

Caspase-3 = biological target: T4, Caspase-3 (Homo sapiens, UniProt P42574); assay: SAR Analysis of small molecule inhibitors of Sentrin-specific proteases (SENPs) using a Caspase-3 Selectivity assay. [Related pubchem assays (depositor defined):AID2540, AID2599, AID434973, AID489001]; format: functional
T4 sequence (P42574 whole entry): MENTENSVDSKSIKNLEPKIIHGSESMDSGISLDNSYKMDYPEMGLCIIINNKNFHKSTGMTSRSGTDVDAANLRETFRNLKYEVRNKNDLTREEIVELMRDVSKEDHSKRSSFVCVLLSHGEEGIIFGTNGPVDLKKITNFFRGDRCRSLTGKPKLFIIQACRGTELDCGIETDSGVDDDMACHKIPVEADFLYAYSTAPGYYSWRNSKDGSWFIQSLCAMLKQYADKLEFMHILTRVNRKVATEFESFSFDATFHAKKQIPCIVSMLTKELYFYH

[13] = biological target: T5, Sentrin-specific protease 6 (Homo sapiens, UniProt Q9GZR1); assay: SAR Analysis of small molecule inhibitors of Sentrin-specific protease 6 (SENP6) using a Luminescent assay. [Related pubchem assays (depositor defined):AID2582, AID2599]; format: functional
T5 sequence (Q9GZR1 whole entry): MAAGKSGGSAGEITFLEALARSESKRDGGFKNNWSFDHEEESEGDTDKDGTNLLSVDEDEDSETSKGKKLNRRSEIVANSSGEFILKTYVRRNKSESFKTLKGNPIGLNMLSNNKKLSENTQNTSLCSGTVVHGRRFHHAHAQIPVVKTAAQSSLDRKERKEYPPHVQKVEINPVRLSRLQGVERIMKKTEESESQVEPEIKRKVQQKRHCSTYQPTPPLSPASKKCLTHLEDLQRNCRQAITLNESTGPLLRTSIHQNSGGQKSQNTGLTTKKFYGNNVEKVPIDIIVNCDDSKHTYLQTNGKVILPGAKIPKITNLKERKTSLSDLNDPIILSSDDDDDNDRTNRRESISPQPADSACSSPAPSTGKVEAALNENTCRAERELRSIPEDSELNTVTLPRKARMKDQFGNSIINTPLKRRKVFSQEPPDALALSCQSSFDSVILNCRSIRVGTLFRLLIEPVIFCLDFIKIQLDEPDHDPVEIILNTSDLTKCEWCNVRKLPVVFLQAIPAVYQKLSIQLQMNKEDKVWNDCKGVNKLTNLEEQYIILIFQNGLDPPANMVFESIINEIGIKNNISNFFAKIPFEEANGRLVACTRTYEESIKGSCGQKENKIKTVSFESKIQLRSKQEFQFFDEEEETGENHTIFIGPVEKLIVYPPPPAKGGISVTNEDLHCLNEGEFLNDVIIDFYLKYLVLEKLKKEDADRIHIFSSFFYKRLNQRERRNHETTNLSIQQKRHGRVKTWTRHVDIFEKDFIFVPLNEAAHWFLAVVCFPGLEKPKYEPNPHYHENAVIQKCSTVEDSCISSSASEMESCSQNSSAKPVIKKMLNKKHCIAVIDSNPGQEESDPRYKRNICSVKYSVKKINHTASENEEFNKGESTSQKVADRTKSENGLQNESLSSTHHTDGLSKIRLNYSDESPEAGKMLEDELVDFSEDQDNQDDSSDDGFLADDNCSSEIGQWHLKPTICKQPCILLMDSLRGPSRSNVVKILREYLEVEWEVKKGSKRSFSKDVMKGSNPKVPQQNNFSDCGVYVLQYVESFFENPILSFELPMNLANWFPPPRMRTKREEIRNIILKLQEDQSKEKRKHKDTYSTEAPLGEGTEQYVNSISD

[14] = biological target: Melanin-concentrating hormone receptor 1 (Homo sapiens, UniProt Q99705); assay: Late-stage fluorescence-based counterscreen for antagonists of the G-protein coupled receptor 7 (GPR7): cell-based dose response assay to identify antagonists of the melanin-concentrating hormone receptor 1 (MCHR1) Set 5.; format: functional
Cytochrome P450 3A4 = Cytochrome P450 3A4 (Homo sapiens, UniProt P08684); details: Potency;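 further: confirmatory qHTS run detecting inhibitors and substrates of CYP3A4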
[15] = biological target: Aryl hydrocarbon receptor (Homo sapiens, UniProt P35869); details: Potency;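 further: confirmatory quantitative high-throughput screen measuring activation of the AhR signaling pathway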
Sequence of Aryl hydrocarbon receptor (P35869 whole entry): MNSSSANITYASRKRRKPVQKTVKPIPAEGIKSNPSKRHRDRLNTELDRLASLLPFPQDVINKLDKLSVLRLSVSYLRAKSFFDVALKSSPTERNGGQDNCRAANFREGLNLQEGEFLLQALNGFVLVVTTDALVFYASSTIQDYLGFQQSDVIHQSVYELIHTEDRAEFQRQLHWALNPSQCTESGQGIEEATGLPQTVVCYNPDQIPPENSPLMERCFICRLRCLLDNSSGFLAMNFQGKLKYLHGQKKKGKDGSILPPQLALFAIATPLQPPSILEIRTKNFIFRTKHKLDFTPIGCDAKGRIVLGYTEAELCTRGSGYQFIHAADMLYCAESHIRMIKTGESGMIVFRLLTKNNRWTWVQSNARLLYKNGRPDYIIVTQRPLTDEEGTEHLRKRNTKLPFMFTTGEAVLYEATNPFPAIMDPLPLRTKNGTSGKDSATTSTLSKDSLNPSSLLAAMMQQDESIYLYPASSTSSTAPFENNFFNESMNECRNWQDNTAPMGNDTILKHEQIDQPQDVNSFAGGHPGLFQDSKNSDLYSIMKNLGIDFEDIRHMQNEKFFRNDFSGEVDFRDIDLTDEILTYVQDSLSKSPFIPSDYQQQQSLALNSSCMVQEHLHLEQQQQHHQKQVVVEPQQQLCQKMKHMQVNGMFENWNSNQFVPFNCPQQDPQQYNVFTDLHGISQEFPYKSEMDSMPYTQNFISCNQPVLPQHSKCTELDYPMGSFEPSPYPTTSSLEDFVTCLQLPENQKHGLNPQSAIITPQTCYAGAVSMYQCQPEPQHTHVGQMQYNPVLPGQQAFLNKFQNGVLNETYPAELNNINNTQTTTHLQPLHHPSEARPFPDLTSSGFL

Sequence of 72 kDa type IV collagenase (P08253 whole entry): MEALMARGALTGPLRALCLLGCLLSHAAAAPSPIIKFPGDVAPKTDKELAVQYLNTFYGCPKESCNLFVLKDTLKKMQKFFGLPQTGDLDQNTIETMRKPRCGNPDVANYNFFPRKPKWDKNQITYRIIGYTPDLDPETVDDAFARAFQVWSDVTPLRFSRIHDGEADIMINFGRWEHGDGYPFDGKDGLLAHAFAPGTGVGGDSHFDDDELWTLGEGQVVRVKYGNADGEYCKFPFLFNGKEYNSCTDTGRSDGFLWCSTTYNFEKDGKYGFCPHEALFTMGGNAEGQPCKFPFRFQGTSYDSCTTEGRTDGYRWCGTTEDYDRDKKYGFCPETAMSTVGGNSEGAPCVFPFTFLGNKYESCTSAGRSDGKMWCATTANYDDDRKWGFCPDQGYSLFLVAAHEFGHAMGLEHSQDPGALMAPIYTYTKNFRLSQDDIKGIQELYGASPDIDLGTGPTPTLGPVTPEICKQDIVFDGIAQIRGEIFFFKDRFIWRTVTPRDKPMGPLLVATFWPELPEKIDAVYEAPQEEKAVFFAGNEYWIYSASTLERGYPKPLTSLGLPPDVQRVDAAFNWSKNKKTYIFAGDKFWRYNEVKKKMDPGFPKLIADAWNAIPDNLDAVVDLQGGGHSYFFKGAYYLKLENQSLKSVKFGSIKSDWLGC
Sequence of 26S proteasome non-ATPase regulatory subunit 14 (O00487 whole entry): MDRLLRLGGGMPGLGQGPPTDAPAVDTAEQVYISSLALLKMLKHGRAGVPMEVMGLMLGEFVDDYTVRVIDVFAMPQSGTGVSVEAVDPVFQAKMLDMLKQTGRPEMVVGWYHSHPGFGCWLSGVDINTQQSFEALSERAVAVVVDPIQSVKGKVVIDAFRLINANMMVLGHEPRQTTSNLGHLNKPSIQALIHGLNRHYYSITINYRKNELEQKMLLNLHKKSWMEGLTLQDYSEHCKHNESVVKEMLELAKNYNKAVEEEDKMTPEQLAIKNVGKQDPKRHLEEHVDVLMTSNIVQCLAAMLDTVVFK
Sequence of Protein disulfide-isomerase (P07237 whole entry): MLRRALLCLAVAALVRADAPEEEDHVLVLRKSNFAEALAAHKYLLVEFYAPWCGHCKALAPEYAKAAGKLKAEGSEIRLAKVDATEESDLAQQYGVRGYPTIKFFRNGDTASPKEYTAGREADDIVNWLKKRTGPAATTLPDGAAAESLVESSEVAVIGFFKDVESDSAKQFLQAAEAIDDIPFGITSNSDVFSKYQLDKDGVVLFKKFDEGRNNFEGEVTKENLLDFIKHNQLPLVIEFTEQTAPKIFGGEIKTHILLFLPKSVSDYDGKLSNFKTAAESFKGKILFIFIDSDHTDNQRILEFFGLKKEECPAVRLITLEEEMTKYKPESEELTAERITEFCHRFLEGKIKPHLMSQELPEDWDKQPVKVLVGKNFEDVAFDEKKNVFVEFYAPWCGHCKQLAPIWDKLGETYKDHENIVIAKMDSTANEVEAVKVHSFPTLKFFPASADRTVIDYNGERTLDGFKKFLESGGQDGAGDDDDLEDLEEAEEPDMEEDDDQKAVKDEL
Sequence of Potassium voltage-gated channel subfamily KQT member 2 (O88943 whole entry): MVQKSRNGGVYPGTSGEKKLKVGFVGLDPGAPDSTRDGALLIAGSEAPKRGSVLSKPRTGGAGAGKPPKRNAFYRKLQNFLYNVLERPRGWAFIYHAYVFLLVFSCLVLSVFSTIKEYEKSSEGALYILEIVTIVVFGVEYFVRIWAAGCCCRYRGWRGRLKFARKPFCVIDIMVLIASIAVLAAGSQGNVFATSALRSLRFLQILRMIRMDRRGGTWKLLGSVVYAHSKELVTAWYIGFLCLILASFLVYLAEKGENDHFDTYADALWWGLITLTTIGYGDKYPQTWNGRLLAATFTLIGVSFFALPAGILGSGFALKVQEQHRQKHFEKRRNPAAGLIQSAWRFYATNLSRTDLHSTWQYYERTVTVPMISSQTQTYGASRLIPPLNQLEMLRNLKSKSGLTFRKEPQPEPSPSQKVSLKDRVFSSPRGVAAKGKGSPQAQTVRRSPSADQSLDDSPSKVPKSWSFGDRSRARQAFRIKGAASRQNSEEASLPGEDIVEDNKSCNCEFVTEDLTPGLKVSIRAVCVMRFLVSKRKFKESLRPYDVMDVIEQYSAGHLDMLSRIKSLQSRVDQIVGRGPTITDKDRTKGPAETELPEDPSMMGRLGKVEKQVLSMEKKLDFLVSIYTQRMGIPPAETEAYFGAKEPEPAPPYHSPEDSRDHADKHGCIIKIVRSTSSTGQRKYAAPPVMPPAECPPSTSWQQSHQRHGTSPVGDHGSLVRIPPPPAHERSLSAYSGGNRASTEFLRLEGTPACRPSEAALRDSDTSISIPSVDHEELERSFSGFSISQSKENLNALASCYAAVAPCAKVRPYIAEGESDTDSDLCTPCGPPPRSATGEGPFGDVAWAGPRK
Sequence of Melanin-concentrating hormone receptor 1 (Q99705 whole entry): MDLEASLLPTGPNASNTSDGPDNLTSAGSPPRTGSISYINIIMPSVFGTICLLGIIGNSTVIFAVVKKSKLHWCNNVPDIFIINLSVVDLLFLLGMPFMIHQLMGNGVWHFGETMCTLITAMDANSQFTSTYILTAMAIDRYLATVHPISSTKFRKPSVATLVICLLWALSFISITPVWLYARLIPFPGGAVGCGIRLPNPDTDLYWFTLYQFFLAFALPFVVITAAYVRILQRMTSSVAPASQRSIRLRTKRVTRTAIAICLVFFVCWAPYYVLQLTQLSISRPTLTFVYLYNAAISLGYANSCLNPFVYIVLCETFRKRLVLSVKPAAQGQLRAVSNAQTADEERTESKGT
Sequence of Cytochrome P450 3A4 (P08684 whole entry): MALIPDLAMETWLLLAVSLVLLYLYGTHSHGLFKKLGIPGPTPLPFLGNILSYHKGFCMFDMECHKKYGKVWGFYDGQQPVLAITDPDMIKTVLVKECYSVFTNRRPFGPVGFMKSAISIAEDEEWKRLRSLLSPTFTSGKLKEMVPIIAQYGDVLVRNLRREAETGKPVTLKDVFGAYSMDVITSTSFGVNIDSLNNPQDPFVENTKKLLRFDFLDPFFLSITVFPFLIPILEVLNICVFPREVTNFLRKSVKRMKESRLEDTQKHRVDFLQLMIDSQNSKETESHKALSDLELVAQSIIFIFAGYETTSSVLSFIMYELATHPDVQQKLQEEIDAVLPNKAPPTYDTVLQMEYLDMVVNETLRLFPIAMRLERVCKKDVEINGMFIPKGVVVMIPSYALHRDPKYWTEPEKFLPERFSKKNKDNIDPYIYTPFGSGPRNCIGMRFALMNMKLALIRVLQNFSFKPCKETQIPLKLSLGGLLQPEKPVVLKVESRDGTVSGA
Sequence of Tyrosine-protein phosphatase non-receptor type 5 (P54829 whole entry): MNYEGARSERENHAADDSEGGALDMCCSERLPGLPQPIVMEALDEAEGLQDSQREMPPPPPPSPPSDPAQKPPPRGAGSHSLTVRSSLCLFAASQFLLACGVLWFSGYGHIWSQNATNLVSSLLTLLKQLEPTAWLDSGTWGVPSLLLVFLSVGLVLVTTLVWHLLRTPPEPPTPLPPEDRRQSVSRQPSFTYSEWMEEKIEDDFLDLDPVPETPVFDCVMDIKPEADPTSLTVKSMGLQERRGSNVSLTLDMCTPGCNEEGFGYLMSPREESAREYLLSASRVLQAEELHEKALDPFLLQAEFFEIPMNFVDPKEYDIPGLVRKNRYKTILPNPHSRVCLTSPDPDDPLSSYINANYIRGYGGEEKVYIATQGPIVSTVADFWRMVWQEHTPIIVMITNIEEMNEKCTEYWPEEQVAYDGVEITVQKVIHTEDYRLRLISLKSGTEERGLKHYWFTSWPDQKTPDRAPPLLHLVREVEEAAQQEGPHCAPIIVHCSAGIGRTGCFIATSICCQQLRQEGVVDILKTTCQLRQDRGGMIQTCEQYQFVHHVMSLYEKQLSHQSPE
Sequence of Dual specificity protein phosphatase 3 (P51452 whole entry): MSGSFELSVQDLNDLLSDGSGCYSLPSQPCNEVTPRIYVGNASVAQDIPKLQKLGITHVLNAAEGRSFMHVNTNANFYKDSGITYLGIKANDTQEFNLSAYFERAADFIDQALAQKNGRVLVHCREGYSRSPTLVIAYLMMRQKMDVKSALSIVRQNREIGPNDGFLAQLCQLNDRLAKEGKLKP

For `NC(=O)c1nc(-c2ccco2)nc2c1[nH]c(=O)n2-c1ccc(Cl)c(Cl)c1`, which EC50 [1] is on record?
The EC50 was 14 µM (active).

With `CCSc1nnc([C@H](Cc2c[nH]c3ccccc23)NC(=O)OC(C)(C)C)o1` as the compound, how does the AC50 [2] read?
Its AC50 is 19.5 µM (active).

For `CCSC1=N/C(=C\c2ccc3c(c2)OCO3)C(=O)S1`, which IC50 (Prothrombin) is on record?
The IC50 was 64.3 µM (active).

And the IC50 [3]?
Its IC50 is 25 µM (active).

And the IC50 [4]?
Its IC50 is > 100 µM (inactive).

Which results are given for `CCc1ccc(NC(=O)Cc2cn(C)c3ccccc23)cc1`?
IC50 [5]: > 80 µM (inactive); IC50 [6]: 57 µM (inactive); IC50 [7]: > 80 µM (inactive)

For `S=C(c1cn(CCOc2cccc3ccccc23)c2ccccc12)N1CCCC1`, which IC50 (Prothrombin) is on record?
Its IC50 is 41.8 µM (active).

And the AC50 (INS1)?
The AC50 was 4.3 µM (active).

And the IC50 [3]?
Its IC50 is 32.9 µM (active).

What about the IC50 [4] of the same compound?
The IC50 was > 100 µM (inactive).

Which IC50 [8] does the source give for `OC(CNC1Cc2ccccc2C1)c1ccccc1` (centres undefined) here?
Its IC50 is 0.178 µM (active).

And the IC50 [9]?
Its IC50 is 0.479 µM (active).

For `O=C(COc1ccc(F)cc1Cl)Nc1ccccc1C(=O)N1CCCCC1`, which IC50 [10] is on record?
Its IC50 is 0.64 µM (active).

With `COc1ccc(C(=O)NC(C)CCn2cccn2)cc1OC1CCN(C(C)C)CC1` (centres undefined) as the compound, how does the IC50 [8] read?
The IC50 was 4.22 µM (active).

And the IC50 [9]?
The IC50 was 6.86 µM (active).

For `Cc1nn(-c2ccccc2)c2c1C(c1ccc(OC(F)F)cc1)C(C#N)=C(N)O2` (centres undefined), which IC50 [11] is on record?
Its IC50 is > 99 µM (inactive).

And the IC50 [12]?
Its IC50 is > 99 µM (inactive).

And the IC50 (Caspase-3)?
Its IC50 is > 99 µM (inactive).

What about the IC50 [13] of the same compound?
Its IC50 is > 99 µM (inactive).

`CCOc1ccc2nc(N(CCCn3ccnc3)C(=O)c3ccc(Cl)s3)sc2c1` was tested. Which IC50 [11] did it give?
The IC50 was > 99 µM (inactive).

What about the IC50 [12] of the same compound?
Its IC50 is > 99 µM (inactive).

What about the IC50 (Caspase-3) of the same compound?
The IC50 was > 99 µM (inactive).

What about the IC50 [13] of the same compound?
Its IC50 is > 99 µM (inactive).

How did the AC50 [2] turn out when `C[C@H]1CN([C@@H](C)CO)C(=O)c2cc(NC(=O)Cc3cn(C)c4ccccc34)ccc2O[C@@H]1CN(C)S(=O)(=O)c1ccc(F)cc1` was run?
Its AC50 is 19.5 µM (active).

With `CSc1ccc(Oc2c(Cl)cnn(Cc3cccc4ccccc34)c2=O)cc1` as the compound, how does the IC50 [14] read?
The IC50 was 1.22 µM (active).

`CC(C)(C)C(=O)C(Oc1ccc(Cl)cc1)n1cncn1` (centres undefined) [TRIADIMEFON] was tested. Which AC50 (Cytochrome P450 3A4) did it give?
The AC50 was 0.794 µM (inconclusive).

What about the AC50 [15] of the same compound?
Its AC50 is 70.8 µM (inconclusive).
